ChEMBL document CHEMBL5303573, “Mapping human microbiome drug metabolism by gut bacteria and their genes” (Nature, 2019)

What was measured:
[1] = The drug is tested on Eubacterium ventriosum strain: ATCC27560 for biotransformation. The drug concentrations were measured before and after a 12-h incubation by liquid-chromatography-coupled mass spectrometry (LC–MS); type: ADME; design: dose 2 uM, timepoint 0 vs 12 hours; conditions: 2 µM
[2] = The drug is tested on Ruminococcus torques strain: ATCC27756 for biotransformation. The drug concentrations were measured before and after a 12-h incubation by liquid-chromatography-coupled mass spectrometry (LC–MS); type: ADME; design: dose 2 uM, timepoint 0 vs 12 hours; conditions: 2 µM
[3] = bifidobacterium adolescentis, 12 h, 2 µM
Description: The drug is tested on Bifidobacterium adolescentis strain: ATCC 15703 for biotransformation. The drug concentrations were measured before and after a 12-h incubation by liquid-chromatography-coupled mass spectrometry (LC–MS)

[4] = The drug is tested on Enterococcus faecalis strain: V583 for biotransformation. The drug concentrations were measured before and after a 12-h incubation by liquid-chromatography-coupled mass spectrometry (LC–MS); conditions: 2 µM
[5] = The drug is tested on Eubacterium hallii strain: DSM3353 for biotransformation. The drug concentrations were measured before and after a 12-h incubation by liquid-chromatography-coupled mass spectrometry (LC–MS); conditions: anaerobutyricum hallii, 2 µM
[6] = The drug is tested on Bacteroides sp. WH2 strain: WH2 for biotransformation. The drug concentrations were measured before and after a 12-h incubation by liquid-chromatography-coupled mass spectrometry (LC–MS); conditions: bacteroides sp. wh2, 12 h, 2 µM
[7] = The drug is tested on Bifidobacterium breve strain: DSM20213 for biotransformation. The drug concentrations were measured before and after a 12-h incubation by liquid-chromatography-coupled mass spectrometry (LC–MS); conditions: 2 µM
[8] = parabacteroides johnsonii, 12 h, 2 µM
Description: The drug is tested on Parabacteroides johnsonii strain: DSM18315 for biotransformation. The drug concentrations were measured before and after a 12-h incubation by liquid-chromatography-coupled mass spectrometry (LC–MS)

[9] = victivallis vadensis, 12 h, 2 µM
Description: The drug is tested on Victivallis vadensis strain: ATCC BAA-548 for biotransformation. The drug concentrations were measured before and after a 12-h incubation by liquid-chromatography-coupled mass spectrometry (LC–MS)

[10] = enterocloster bolteae, 12 h, 2 µM
Description: The drug is tested on Clostridium bolteae strain: ATCCBAA-613 for biotransformation. The drug concentrations were measured before and after a 12-h incubation by liquid-chromatography-coupled mass spectrometry (LC–MS)

[11] = The drug is tested on Eubacterium rectale strain: ATCC33656 for biotransformation. The drug concentrations were measured before and after a 12-h incubation by liquid-chromatography-coupled mass spectrometry (LC–MS); conditions: agathobacter rectalis, 2 µM
[12] = The drug is tested on Providencia stuartii strain: ATCC25827 for biotransformation. The drug concentrations were measured before and after a 12-h incubation by liquid-chromatography-coupled mass spectrometry (LC–MS); conditions: 2 µM
[13] = The drug is tested on Clostridium ramosum strain: DSM1402 for biotransformation. The drug concentrations were measured before and after a 12-h incubation by liquid-chromatography-coupled mass spectrometry (LC–MS); conditions: thomasclavelia ramosa, 2 µM
[14] = The drug is tested on Bacteroides ovatus strain: ATCC8483 for biotransformation. The drug concentrations were measured before and after a 12-h incubation by liquid-chromatography-coupled mass spectrometry (LC–MS); conditions: 2 µM
[15] = The drug is tested on Bacteroides xylanisolvens strain: DSM18836 for biotransformation. The drug concentrations were measured before and after a 12-h incubation by liquid-chromatography-coupled mass spectrometry (LC–MS); conditions: 2 µM
[16] = The drug is tested on Escherichia coli strain: BW25113 for biotransformation. The drug concentrations were measured before and after a 12-h incubation by liquid-chromatography-coupled mass spectrometry (LC–MS); conditions: 2 µM
[17] = The drug is tested on Bifidobacterium longum subsp. Infantis strain: CCUG52486 for biotransformation. The drug concentrations were measured before and after a 12-h incubation by liquid-chromatography-coupled mass spectrometry (LC–MS); conditions: 2 µM
[18] = The drug is tested on Collinsella aerofaciens strain: ATCC25986 for biotransformation. The drug concentrations were measured before and after a 12-h incubation by liquid-chromatography-coupled mass spectrometry (LC–MS); conditions: 2 µM
[19] = The drug is tested on Bacteroides coprophilus strain: DSM18228 for biotransformation. The drug concentrations were measured before and after a 12-h incubation by liquid-chromatography-coupled mass spectrometry (LC–MS); conditions: 2 µM
[20] = The drug is tested on Bacteroides fragilis strain: HMW615 for biotransformation. The drug concentrations were measured before and after a 12-h incubation by liquid-chromatography-coupled mass spectrometry (LC–MS); conditions: 2 µM

Row | Structure (SMILES) | Bacterial Biotransformation [1] | Bacterial Biotransformation [2] | Bacterial Biotransformation [3] | Bacterial Biotransformation [4] | Bacterial Biotransformation [5] | Bacterial Biotransformation [6] | Bacterial Biotransformation [7] | Bacterial Biotransformation [8] | Bacterial Biotransformation [9] | Bacterial Biotransformation [10] | Bacterial Biotransformation [11] | Bacterial Biotransformation [12] | Bacterial Biotransformation [13] | Bacterial Biotransformation [14] | Bacterial Biotransformation [15] | Bacterial Biotransformation [16] | Bacterial Biotransformation [17] | Bacterial Biotransformation [18] | Bacterial Biotransformation [19] | Bacterial Biotransformation [20]
1 | CN(C)C(=O)Oc1cc(OC(=O)N(C)C)cc(C(O)CNC(C)(C)C)c1 (stereo not given) [BAMBUTEROL] | Compound NOT metabolized | Compound NOT metabolized | Compound NOT metabolized | Compound NOT metabolized | Compound NOT metabolized | Compound NOT metabolized | Compound NOT metabolized | Compound NOT metabolized | Compound NOT metabolized | Compound NOT metabolized | Compound NOT metabolized | Compound NOT metabolized | Compound NOT metabolized | Compound NOT metabolized | Compound NOT metabolized | Compound NOT metabolized | Compound NOT metabolized | Compound NOT metabolized | Compound NOT metabolized | Compound NOT metabolized
2 | CC(=O)Oc1ccc(C(c2ccc(OC(C)=O)cc2)c2ccccn2)cc1 [BISACODYL] | Compound metabolized | Compound metabolized | Compound metabolized | Compound metabolized | Compound metabolized | Compound metabolized | Compound metabolized | Compound metabolized | Compound metabolized | Compound metabolized | Compound metabolized | Compound metabolized | Compound metabolized | Compound metabolized | Compound metabolized | Compound metabolized | Compound metabolized | Compound metabolized | Compound metabolized | Compound metabolized
3 | CCN(CC)CCOCCOC(=O)C1(c2ccccc2)CCCC1.O=C(O)CC(O)(CC(=O)O)C(=O)O [CARBETAPENTANE CITRATE] | Compound metabolized | Compound metabolized | Compound metabolized | Compound metabolized | Compound metabolized | Compound metabolized | Compound metabolized | Compound metabolized | Compound metabolized | Compound metabolized | Compound NOT metabolized | Compound metabolized | Compound metabolized | Compound metabolized | Compound metabolized | Compound metabolized | Compound metabolized | Compound metabolized | Compound metabolized | Compound NOT metabolized
4 | COc1ccccc1OCCNCC(O)COc1cccc2[nH]c3ccccc3c12 (stereo not given) [CARVEDILOL] | Compound metabolized | Compound NOT metabolized | Compound NOT metabolized | Compound NOT metabolized | Compound metabolized | Compound metabolized | Compound NOT metabolized | Compound metabolized | Compound NOT metabolized | Compound NOT metabolized | Compound NOT metabolized | Compound metabolized | Compound metabolized | Compound metabolized | Compound metabolized | Compound metabolized | Compound NOT metabolized | Compound metabolized | Compound metabolized | Compound metabolized
5 | C#C[C@]1(O)CC[C@H]2[C@@H]3CCC4=Cc5oncc5C[C@]4(C)[C@H]3CC[C@@]21C [DANAZOL] | Compound metabolized | Compound metabolized | Compound metabolized | Compound metabolized | Compound metabolized | Compound metabolized | Compound metabolized | Compound metabolized | Compound metabolized | Compound metabolized | Compound metabolized | Compound metabolized | Compound metabolized | Compound metabolized | Compound metabolized | Compound metabolized | Compound metabolized | Compound metabolized | Compound NOT metabolized | Compound metabolized
6 | CC(=O)OCC(=O)[C@@]12N=C(C)O[C@@H]1C[C@H]1[C@@H]3CCC4=CC(=O)C=C[C@]4(C)[C@H]3[C@@H](O)C[C@@]12C [DEFLAZACORT] | Compound metabolized | Compound metabolized | Compound metabolized | Compound metabolized | Compound metabolized | Compound metabolized | Compound metabolized | Compound metabolized | Compound metabolized | Compound metabolized | Compound metabolized | Compound metabolized | Compound metabolized | Compound metabolized | Compound metabolized | Compound metabolized | Compound metabolized | Compound metabolized | Compound metabolized | Compound metabolized
